Reference: the METLIN SMRT retention time set (Domingo-Almenara et al. 2019)

Assay: gradient 5% acetonitrile 3 min, to 50% in 2 min, to 85% in 15 min, held 3 min, 100 µL/min
Conditions: column: Zorbax Extend-C18 2.1 x 50 mm; eluents: water / acetonitrile, 0.1% formic acid
Summary of the method: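 Retention time was recorded from adduct peaks, which were picked computationally and each inspected manually. Pure standards ran in mixtures of ~100 molecules on HPLC coupled to a quadrupole time-of-flight mass spectrometer, in positive and negative ionization mode, through a Zorbax Extend-C18 column (2.1 × 50 mm, 1.8 μm) at 100 μL/min. Eluents were water and acetonitrile, each with 0.1% formic acid.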

| Compound | RP-LC retention time [s] |
| --- | --- |
| O=C(Nc1cc(F)ccc1F)N1CCc2nc[nH]c2C1 | 571 |
| C=Cc1ccc(CN2N=C(C(=O)N3CCOCC3)S(=O)(=O)c3ccc(C)cc32)cc1 | 919 |
| COCCN(Cc1cccs1)C(=O)c1nnn(-c2ccccc2)c1-c1ccccn1 | 824 |
| COc1cccc(NC(=O)CN2C(=O)NC3(CCC(C)CC3)C2=O)c1 (centres undefined) | 789 |
| COc1cccc(-n2c(=O)c(C(=O)Nc3cccc(Cl)c3)c(O)c3cccnc32)c1 | 1330 |
| NC(=O)COc1c(F)cc(SCCNS(=O)(=O)c2ccccc2)cc1F | 847 |
| O=C(NCC1CCOCC1)Nc1ccc(F)c(Cl)c1 | 728 |
| Cc1ncc2c(n1)C[C@@H]1CC[C@H]2N1S(=O)(=O)c1ccc(F)cc1 | 720 |
| Cc1nnc(-c2nnc(NCCC(C)C)c3ccccc23)o1 | 710 |
| CCOc1ccc(-n2c(=O)c3sccc3n(Cc3nc(-c4ccc(C)c(C)c4)no3)c2=O)cc1 | 1130 |
| CCc1ccc(C2=C(C)C(N3CCCN(C(=O)NCCOC)CC3)=NS2(=O)=O)cc1 | 731 |
| O=C(c1cc2c(s1)CCC(C(=O)N1CCN(c3ccccn3)CC1)C2)N1CCCCC1 (centres undefined) | 621 |
| Cn1nccc1-c1cccc(-c2noc(/C=C/c3cccs3)n2)c1 | 1160 |
| CCC1CN2C=NC(N3CCN(C(=O)c4nn(CC)cc4Cl)CC3)=CC2=N1 (centres undefined) | 602 |
| CCN1C(=O)C(CC(=O)NCC(C)C)Sc2ncccc21 (centres undefined) | 689 |
| COC(=O)c1c(C)[nH]c(C(=O)N2CCCC(C(=O)NCc3ccccc3C)C2)c1C (centres undefined) | 776 |
| O=C(NCCC1=CCCCC1)c1nc(Nc2ccc(F)cc2)c2ccccc2n1 | 962 |
| O=C(Cn1ccn2nc(-c3ccccc3)c(CO)c2c1=O)N1CCc2ccccc21 | 848 |
| CN(C)C(=O)C1c2ccccc2CCN1CC(=O)N1CCN(c2ccc(Cl)cc2)CC1 (centres undefined) | 742 |
| CNC(=O)c1cc(Nc2ccc3nc(Nc4ccc(Cl)c(C(F)(F)F)c4)[nH]c3c2)ccn1 | 631 |
| COc1cc(-c2nc3cccc(C)n3c2Nc2ccc3c(c2)OCCO3)ccc1O | 634 |
| COc1ccc([N+](=O)[O-])cc1NC(=O)N(C)Cc1ccco1 | 922 |
| Cc1cc(C)cc(NC(=O)Cn2nc(C(=O)N3CCOCC3)c3ccccc32)c1 | 819 |

| Compound | RP-LC retention time [s] |
| --- | --- |
| Cc1ccc(CNC(=O)Nc2ccc3nncn3c2)cc1 | 680 |
| CCn1cc(C(=O)NCc2ccc3c(c2)OCO3)c2cccnc21 | 755 |
| COc1cc(NC(=O)C2CCN(C(=O)C3Sc4ccccc4NC3=O)CC2)cc(OC)c1OC (centres undefined) | 707 |
| O=S(=O)(Nc1cccc(F)c1)c1ccc2nncn2c1 | 657 |
| CCCS(=O)(=O)N1[C@H]2CC[C@@H]1c1cnc(-c3ccc(F)cc3)nc1C2 | 1010 |
| Cc1ccc(Cl)c(NS(=O)(=O)c2cc(-c3[nH]ncc3C(=O)N3CCCC3)oc2C)c1 | 739 |
| Cc1ccnn1-c1ccc(SCC(=O)Nc2cc(F)ccc2F)nn1 | 934 |
| Cc1ccc(CNC(=O)C2(C)CN(S(C)(=O)=O)CC(=O)N2Cc2ccccc2Cl)cc1 (centres undefined) | 901 |
| COc1cc(OC)c(NC(=O)NCC2(N3CCOCC3)CCOC2)cc1Cl (centres undefined) | 612 |
| O=C(Cn1nc2c3cc(Cl)ccc3ncn2c1=O)Nc1cccc(Cl)c1 | 730 |
| COc1ccccc1N1CCN(c2cc(SCC(=O)NC(C)CCc3ccccc3)ncn2)CC1 (centres undefined) | 1020 |
| Cc1cc(C)c(S(=O)(=O)N2CCC(c3cc(N)on3)CC2)cc1C | 879 |
| CCn1c(SC)nnc1-c1nn(C)c2c1CN(C(C)=O)CC2 | 664 |
| CCn1cnc(S(=O)(=O)N2CCCC(C(=O)Nc3cccc(C)c3C)C2)c1 (centres undefined) | 754 |
| COc1cc(CNC(=O)C2CCCN(c3nccnc3Sc3ccccc3)C2)cc(OC)c1 (centres undefined) | 986 |
| Cc1ccccc1N1C(=O)CC(N2CCC(C(N)=O)CC2)C1=O (centres undefined) | 580 |
| Cc1cc2cc(CNC(=O)C(=O)c3c(C)[nH]c4ccccc34)ccc2[nH]1 | 1010 |
| C=CCNC(=O)NC1CCN(C2=NS(=O)(=O)C(c3cccc(Cl)c3)=C2C)CC1 | 861 |
| Cc1cc(NC(=O)Cn2cnc3nc4c(cc3c2=O)CCCC4)ccc1Br | 851 |
| O=c1c2cc(-c3ccc4c(c3)OCO4)nn2ccn1Cc1ccc(F)cc1 | 986 |
| COC(=O)CSC1=C(C#N)C(c2ccsc2)CC(=O)N1 (centres undefined) | 707 |
| O=S(=O)(c1cccs1)N1CCN(c2cnn3cnnc3c2)CC1 | 652 |
| Cc1ccc(NC(=O)N2CCc3c(c(-c4nc(C5CC5)no4)nn3C)C2)c(C)c1 | 834 |

| Compound | RP-LC retention time [s] |
| --- | --- |
| O=C(Cn1nc2c(N3CCCCCC3)nccn2c1=O)NCc1cc(F)cc(F)c1 | 744 |
| CCCNC(=O)C1CCN(c2ccc(SCC(=O)Nc3cc(OC)ccc3OC)nn2)CC1 | 662 |
| Cc1cc2c(c(=O)n(-c3ccc(F)cc3)c(=O)n2CC(=O)Nc2cccc(C(F)(F)F)c2)n1C | 933 |
| O=c1n(Cc2ccccc2)nc2c(S(=O)(=O)N3CCCCCC3)cccn12 | 948 |
| COc1cccc(-c2ccc(=O)n(CCc3nc(-c4ccc(F)cc4)no3)n2)c1 | 981 |
| O=C(Nc1nc(-c2ccccc2)cs1)c1ccc(S(=O)(=O)N2CCCCC2)cc1 | 1150 |
| Cc1ccc(C2Cn3cnc(C(=O)N4CCC(C(=O)NC(C)c5ccccc5)CC4)c3CO2)cc1 (centres undefined) | 756 |
| CCCc1ccc(S(=O)(=O)N2CCC3(CC2)NCCN=C3NCc2cccc(C)c2)cc1 | 870 |
| COc1ccc(CNC(=O)NCC2(c3ccc(F)cc3)CC2)cc1 | 817 |
| O=C(C1=CN(c2ccc(Br)cc2)c2cc(Cl)ccc2S1(=O)=O)N1CCOCC1 | 924 |
| CN(C)CC/C=C1/c2ccccc2COc2ccccc21 | 760 |
| CCN1C(=O)COc2ccc(-c3noc(-c4ccc(OC)c(OC)c4)n3)cc21 | 1020 |
| CCOCc1nc(C2CCCN(C(=O)NC3CCCC3)C2)no1 (centres undefined) | 766 |
| CCn1cc(-c2nc(CC(=O)Nc3ccc4c(c3)OCCO4)cs2)c2cccnc21 | 925 |
| CCN1C(=O)COc2ccc(-c3nc(NC(=O)c4ccc(Cl)cc4)sc3C)cc21 | 1130 |
| COc1cc(-c2noc(Cn3ncn4nc(-c5ccc(C)cc5C)cc4c3=O)n2)cc(OC)c1OC | 1130 |
| Cc1cccc(CC(=O)N2C[C@@H]3C[C@H]2C[C@@H]3NS(=O)(=O)c2ccccc2)c1 | 832 |
| Cc1ccc(NC(=O)Nc2c(-c3ccncc3)nc3ccccn23)cc1F | 630 |
| O=C(Cn1c(=O)c(CCC(=O)NC2CCCC2)nc2ccccc21)NCc1ccccc1 | 782 |
| O=C(c1cc(-c2ccc(F)c(F)c2)on1)N1CCC(Cn2cccn2)CC1 | 797 |
| COc1cc(NC(=O)Cn2c(N3CCc4ccccc4C3)nc(C)cc2=O)cc(OC)c1OC | 721 |
| Cc1cnc(C2CC2)n1C1CCN(C(=O)c2cccn2C)C1 (centres undefined) | 583 |
| CC(C)N1CCN(C(=O)c2ccc(-c3ccnc(N4CCCC4)n3)cc2)CC1 | 562 |

| Compound | RP-LC retention time [s] |
| --- | --- |
| COc1ccc(-c2nc(-c3cccc(-c4ccn[nH]4)c3)no2)cc1F | 978 |
| COCc1cn(C2CN(C(=O)Cc3c[nH]c4ccccc34)C2)nn1 | 634 |
| Cc1nnc(N2CCCC(C(=O)NCCC(C)C)C2)c2nn(-c3ccc(Cl)cc3)c(C)c12 (centres undefined) | 783 |
| Cc1noc(C)c1-c1ccc(S(=O)(=O)NC2CCCc3ccccc32)cc1 (centres undefined) | 1040 |
| CCCC(=O)Nc1ccc(-n2cnc(C(=O)N3CCN(c4cccc(C)c4C)CC3)c2)nc1 | 929 |
| Cn1cc(CC(=O)N2CCN(c3ccccc3F)CC2)c2ccccc21 | 915 |
| Cc1nc(-c2csc(S(=O)(=O)NCc3ccc(F)cc3Cl)c2)sc1C | 1070 |
| CCn1cc(-c2ccc(F)cc2)cc1C(=O)N1CCC(C)CC1 | 1150 |
| CC(C)Cn1cc(CCNS(=O)(=O)c2cc(Cl)ccc2Cl)c2cccnc21 | 1040 |
| CCn1cc(C)c(C(=O)O)c1CC(=O)NCc1ccc2c(c1)OCO2 | 734 |
| Cn1c(=O)c(N2CCN(C(=O)c3cc(Cl)ccc3F)CC2)nc2ccncc21 | 560 |
| Cc1cc(C)cc(C(=O)N2CCC(c3noc(N)c3C(C)C)CC2)c1 | 829 |
| CCC(C)NC(=O)c1cc(NC(C)=O)cc2nc(C)ccc12 (centres undefined) | 575 |
| COc1ccc(NC(=O)c2cc(C(C)(C)C)n3nccc3n2)cc1OC | 1110 |
| Cn1cc(C2=CCN(S(=O)(=O)Cc3ccccc3)CC2)c2cccnc21 | 898 |
| COc1ccc(NC(=O)Cn2c(N3CCOCC3)nc(C)cc2=O)cc1F | 644 |
| Cc1ccc(S(=O)(=O)Cc2nc(-c3ccc4c(c3)OCO4)no2)cc1 | 951 |
| CC(=O)Nc1c(C)cc(OCC(=O)O)cc1C | 649 |
| Cc1ccc(CNC(=O)C2(C)CCCN(C(=O)NCc3ccc(F)cc3)C2)cc1 (centres undefined) | 864 |
| O=C(c1ccc(Cn2cncn2)cc1)N1CCN(c2ccc(F)cc2)CC1 | 700 |
